According to ChEMBL document CHEMBL5604063, “ASAP - DENV-2 NS2B-NS3 protease fluorescence dose response” (2024):
Values joined by “and” are separate entries in the source; they are usually repeats but may differ in a detail not shown here. Equal entries are not always repeated.

Assays:
Genome polyprotein [1] = biological target: T1, Genome polyprotein (dengue virus type 2, UniProt P29990); type: functional, Thailand/16681/1984
Genome polyprotein [2] = biological target: T1, Genome polyprotein; type: functional, Thailand/16681/1984; remark: listed apart in the source

T1 sequence (P29990 1346-1475 limits assumed): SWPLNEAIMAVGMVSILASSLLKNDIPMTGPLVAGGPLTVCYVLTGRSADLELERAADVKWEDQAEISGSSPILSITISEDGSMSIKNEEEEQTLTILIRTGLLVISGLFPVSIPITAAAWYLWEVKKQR
T1 sequence (P29990 1476-2093 limits assumed): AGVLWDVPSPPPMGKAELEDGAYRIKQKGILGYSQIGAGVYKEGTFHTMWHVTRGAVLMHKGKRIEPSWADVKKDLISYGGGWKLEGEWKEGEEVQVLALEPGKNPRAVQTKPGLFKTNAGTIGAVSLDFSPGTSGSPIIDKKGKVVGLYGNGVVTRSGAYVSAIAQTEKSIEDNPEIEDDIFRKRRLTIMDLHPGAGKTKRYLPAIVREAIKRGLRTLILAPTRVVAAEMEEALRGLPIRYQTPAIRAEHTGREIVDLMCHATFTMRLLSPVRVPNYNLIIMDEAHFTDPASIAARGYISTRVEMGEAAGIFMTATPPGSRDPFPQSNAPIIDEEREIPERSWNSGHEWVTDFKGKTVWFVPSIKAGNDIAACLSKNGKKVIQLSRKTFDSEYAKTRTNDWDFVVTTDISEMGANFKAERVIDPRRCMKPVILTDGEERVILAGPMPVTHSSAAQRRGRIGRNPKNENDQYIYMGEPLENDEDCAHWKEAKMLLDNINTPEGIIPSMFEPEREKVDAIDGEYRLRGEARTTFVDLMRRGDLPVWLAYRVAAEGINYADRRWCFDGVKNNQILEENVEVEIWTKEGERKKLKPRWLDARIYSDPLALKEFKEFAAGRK

Row | SMILES | IC50 (Genome polyprotein [1]) | IC50 (Genome polyprotein [2])
1 | C[C@H](CC(=O)O)N(C)C(=O)c1cc(Cl)cc(NC(=O)OCc2ccccc2)c1 | > 100 µM | > 99.5 µM
2 | Clc1ccc2[nH]cc(Cc3ccc(-c4nn[nH]n4)cc3)c2c1 | 16.4 µM | 58.7 µM
3 | C[C@H](CC(=O)O)NC(=O)c1cc(Cl)cc(NC(=O)OCc2ccccc2)c1 | > 100 µM | > 99.5 µM
4 | CCc1sc(C(=O)Nc2cccc(-c3nnn[nH]3)c2)cc1C | > 100 µM | > 99.5 µM
5 | O=C(O)CCc1ccc(NC(=O)c2cc(Cl)cc(C3CC3)c2)cc1 | > 100 µM | > 99.5 µM
6 | CC(C)C[C@H](NC(=O)c1cc(Cl)cc(NC(=O)OCc2ccccc2)c1)c1nnn[nH]1 | 28.3 µM | 74.6 µM
7 | O=C(Nc1cc(Cl)cc(C(=O)Nc2ccccc2[C@@H]2C[C@H]2C(=O)O)c1)OCc1ccccc1 | > 100 µM | > 99.5 µM
8 | NCc1cc(C(=O)N[C@H]2CCCOC2)cc([C@@H]2C[C@H]2c2cc(Cl)cc(NC(=O)OCc3ccccc3)c2)c1 | > 100 µM | > 99.5 µM
9 | O=C(Nc1cc(Cl)cc(C(=O)NC[C@H]2C[C@@H]2C(=O)O)c1)OCc1ccccc1 | > 100 µM | > 99.5 µM
10 | O=C(Nc1cc(Cl)cc(C(=O)NCc2ccc(-c3nnn[nH]3)cc2)c1)OCc1ccccc1 | 11.7 µM and 9.92 µM | 21 µM
11 | CC(C)(C)NC(=O)[C@H](Nc1cccc(-c2nn[nH]n2)c1)c1cc(Cl)cc(NC(=O)OCc2ccccc2)c1 | 7.15 µM and 7.59 µM | 11.3 µM
12 | O=C(Nc1cc(Cl)cc(C(=O)N2CCC[C@H]2c2nnn[nH]2)c1)OCc1ccccc1 | > 100 µM | > 99.5 µM
13 | C=CC[C@H](Nc1ccc(-c2nn[nH]n2)cc1)c1cc(Cl)cc(NC(=O)OCc2ccccc2)c1 | 5.41 µM and 5.49 µM | 6.6 µM
14 | NCc1cc(C(=O)N2CCNC(=O)C2)cc([C@@H]2C[C@H]2c2cc(Cl)cc(NC(=O)OCc3ccccc3)c2)c1 | > 100 µM | 49.1 µM
15 | O=C(O)c1cccc(NC(=O)c2cc(Cl)cc3[nH]ncc23)c1 | > 100 µM | > 99.5 µM
16 | O=C(Nc1cc(Cl)cc([C@H]2CN(Cc3ccccc3)C[C@@H]2c2cccc(-c3nn[nH]n3)c2)c1)OCc1ccccc1 | 5.87 µM and 5.96 µM | 6.12 µM
17 | CCCNC(=O)[C@H](Nc1cccc(-c2nn[nH]n2)c1)c1cc(Cl)cc(NC(=O)OCc2ccccc2)c1 | 9.41 µM and 9.81 µM | 17.3 µM
18 | CC(C)NC(=O)[C@H](Nc1cccc(-c2nn[nH]n2)c1)c1cc(Cl)cc(NC(=O)OCc2ccccc2)c1 | 12.2 µM | 21.5 µM
19 | O=C(Nc1cc(Cl)cc(C(=O)N2CCC(c3nn[nH]n3)CC2)c1)OCc1ccccc1 | > 100 µM | > 99.5 µM
20 | CS(=O)(=O)c1cc(CN)cc([C@@H]2C[C@H]2c2cc(Cl)cc(NC(=O)OCc3ccccc3)c2)c1 | > 100 µM | > 99.5 µM
21 | CCc1[nH]c(-c2ccccc2)cc1C(=O)Nc1cccc(-c2nnn[nH]2)c1 | 33.1 µM | > 99.5 µM
22 | CN(C)C(=O)c1cc(CN)cc([C@@H]2C[C@H]2c2cc(Cl)cc(NC(=O)OCc3ccccc3)c2)c1 | > 100 µM | 31.6 µM
23 | CS(=O)(=O)NC(=O)c1cc(CN)cc(NC(=O)c2cc(Cl)cc(NC(=O)OCc3ccccc3)c2)c1 | > 100 µM | > 99.5 µM
24 | CC(=Cc1cc(Cl)cc(NC(=O)OCc2ccccc2)c1)c1cccc(CN)c1 | > 100 µM | 23.4 µM
25 | C#C[C@H](Nc1cccc(C(=O)O)c1)c1cc(Cl)cc2[nH]ncc12 | > 100 µM | > 99.5 µM

Row | SMILES | IC50 (Genome polyprotein [1]) | IC50 (Genome polyprotein [2])
26 | CCc1cc(C(=O)Nc2cccc(-c3nnn[nH]3)c2)ccc1Cl | 67.2 µM | > 99.5 µM
27 | C[C@H](NC(=O)c1cc(Cl)cc(NC(=O)OCc2ccccc2)c1)C(=O)O | > 100 µM | > 99.5 µM
28 | O=C(Nc1ccc(-n2nn[nH]c2=O)cc1)c1cc(Cl)cc(C2CC2)c1 | 62.2 µM | > 99.5 µM
29 | Cc1c(C(=O)Nc2cccc(-c3nnn[nH]3)c2)n[nH]c1-c1ccc(Cl)cc1 | 18.2 µM | 42 µM
30 | COC[C@H](NC(=O)c1cc(Cl)cc(NC(=O)OCc2ccccc2)c1)c1nnn[nH]1 | > 100 µM | > 99.5 µM
31 | CC(C)[C@H](NC(=O)c1cc(Cl)cc(NC(=O)OCc2ccccc2)c1)C(=O)O | > 100 µM | > 99.5 µM
32 | CNC(=O)[C@H](Nc1ccc(-c2nnn[nH]2)cc1)c1cc(Cl)cc(C2CC2)c1 | > 100 µM | > 99.5 µM
33 | O=C(Nc1cc(Cl)cc(C(=O)N2CCC[C@H](c3nnn[nH]3)C2)c1)OCc1ccccc1 | > 100 µM | > 99.5 µM
34 | O=C(Nc1cc(Cl)cc([C@H](Nc2cccc(-c3nn[nH]n3)c2)C(=O)NCc2ccccc2)c1)OCc1ccccc1 | 7.11 µM and 6.42 µM | 8.05 µM
35 | C=CC[C@H](Nc1cc(Cl)cc(NC(=O)OCc2ccccc2)c1)c1cccc(CN)c1 | > 100 µM | 37.5 µM
36 | O=C(Nc1cccc(-c2nnn[nH]2)c1)c1ccc(-c2cccnc2)s1 | > 100 µM | > 99.5 µM
37 | CCOC(=O)[C@H]1[C@H](c2cc(Cl)cc(NC(=O)OCc3ccccc3)c2)[C@H]1c1cccc(-c2nnn[nH]2)c1 | 13.9 µM | 13.1 µM
38 | O=C(Nc1cc(Cl)cc(C(=O)Nc2cccc3c2OC[C@H](C(=O)O)C3)c1)OCc1ccccc1 | 19.1 µM | 50.4 µM
39 | NCc1cc(C(=O)N2CCOCC2)cc([C@@H]2C[C@H]2c2cc(Cl)cc(NC(=O)OCc3ccccc3)c2)c1 | > 100 µM | 44.5 µM
40 | NCc1cc(/C=C/C(=O)O)cc(NC(=O)c2cc(Cl)cc(NC(=O)OCc3ccccc3)c2)c1 | > 100 µM | 94.6 µM
41 | CCOC(=O)[C@H]1[C@H](c2cccc(CN)c2)[C@H]1c1cc(Cl)cc(NC(=O)OCc2ccccc2)c1 | > 100 µM | > 99.5 µM
42 | C=CC[C@H](Nc1cccc(C(=O)O)c1)c1cc(Cl)cc2[nH]ncc12 | > 100 µM | > 99.5 µM
43 | Clc1ccc2[nH]cc(Cc3cccc(-c4nn[nH]n4)c3)c2c1 | 22.4 µM | 63.1 µM
44 | C=CC[C@H](Nc1cc(Cl)cc(NC(=O)OCc2ccccc2)c1)c1ccc(-c2nn[nH]n2)cc1 | 5.69 µM and 5.81 µM | 7.02 µM
45 | CC(C)CNC(=O)[C@H](Nc1cccc(-c2nn[nH]n2)c1)c1cc(Cl)cc(NC(=O)OCc2ccccc2)c1 | 9.91 µM and 9.02 µM | 12.7 µM
46 | O=C(Nc1cc(Cl)cc(C(=O)NCC[C@H]2C[C@@H]2C(=O)O)c1)OCc1ccccc1 | > 100 µM | > 99.5 µM
47 | Clc1cc(/C=C/c2cccc(-c3nn[nH]n3)c2)c2cn[nH]c2c1 | > 100 µM | > 99.5 µM
48 | O=C(Nc1cccc(-n2nn[nH]c2=O)c1)c1cc(Cl)cc(C2CC2)c1 | 50.1 µM | 98.7 µM
49 | CCCc1sc(C(=O)Nc2cccc(-c3nnn[nH]3)c2)cc1CC | 19 µM and 20.6 µM | 45.8 µM
50 | O=C(Nc1cc(Cl)cc(C(=O)Nc2cncc(C(=O)O)c2)c1)OCc1ccccc1 | 32.1 µM and 27.5 µM | 70 µM

Row | SMILES | IC50 (Genome polyprotein [1]) | IC50 (Genome polyprotein [2])
51 | NCc1cc(CO)cc([C@H]2C[C@@H]2c2cc(Cl)cc(NC(=O)OCc3ccccc3)c2)c1 | > 100 µM | 29.7 µM
52 | O=C(Nc1cc(Cl)cc(-c2ccc3[nH]c(C(=O)O)cc3c2)c1)OCc1ccccc1 | 5.48 µM and 4.93 µM | 6.65 µM and 5.47 µM
53 | O=C(Nc1cc(Cl)cc(-c2ccn3c(C(=O)O)cnc3c2)c1)OCc1ccccc1 | 13.6 µM | > 99.5 µM
54 | O=C(O)Cn1ncc2cc(-c3cc(Cl)cc(NC(=O)OCc4ccccc4)c3)ccc21 | 10.7 µM and 11 µM | 20.8 µM
55 | CCc1nc(C)c(C(=O)Nc2cccc(-c3nnn[nH]3)c2)s1 | > 100 µM | > 99.5 µM
56 | C[C@H](C(=O)O)c1cccc(NC(=O)c2cc(Cl)cc(NC(=O)OCc3ccccc3)c2)c1 | 24.7 µM and 27.2 µM | 58.7 µM
57 | O=C(Nc1cc(Cl)cc(-c2ccc3nc(C(=O)O)ncc3c2)c1)OCc1ccccc1 | 11.6 µM and 12.4 µM | 11.4 µM
58 | CC(=Cc1cccc(CN)c1)c1cc(Cl)cc(NC(=O)OCc2ccccc2)c1 | > 100 µM | 63.2 µM
59 | Cc1c(C(=O)Nc2ccc(CN)cc2)cc(C2CC2)n1C | > 100 µM | > 99.5 µM
60 | CN1C[C@H](c2cccc(CN)c2)[C@@H](c2cc(Cl)cc(NC(=O)OCc3ccccc3)c2)C1 | > 100 µM | > 99.5 µM
61 | O=C(Nc1cc(Cl)cc(C(=O)N[C@H]2CCCC[C@@H]2C(=O)O)c1)OCc1ccccc1 | > 100 µM | > 99.5 µM
62 | O=C(Nc1cc(Cl)cc(C(=O)Nc2cccc(C3(C(=O)O)CCC3)c2)c1)OCc1ccccc1 | 12.5 µM and 12.8 µM | 24.6 µM
63 | CS(=O)(=O)NC(=O)c1cc(CN)cc([C@@H]2C[C@H]2c2cc(Cl)cc(NC(=O)OCc3ccccc3)c2)c1 | > 100 µM | > 99.5 µM
64 | N#C[C@H](Nc1ccc(-c2nn[nH]n2)cc1)c1cc(Cl)cc(NC(=O)OCc2ccccc2)c1 | 7.23 µM and 13 µM | 10.7 µM
65 | O=C(Nc1cc(Cl)cc(C(=O)Nc2cc(C(=O)O)ccn2)c1)OCc1ccccc1 | 35.6 µM | > 99.5 µM
66 | CNC(=O)[C@H](Nc1cc(Cl)cc(NC(=O)OCc2ccccc2)c1)c1ccc(-c2nn[nH]n2)cc1 | 19.2 µM | 45.6 µM
67 | CC(=Cc1cccc(-c2nnn[nH]2)c1)c1cc(Cl)cc(NC(=O)OCc2ccccc2)c1 | 8.82 µM and 11.8 µM | 9.44 µM
68 | CCc1cc(C(=O)Nc2cccc(-c3nnn[nH]3)c2)sc1C | > 100 µM | > 99.5 µM
69 | C=CC[C@H](Nc1cccc(-c2nn[nH]n2)c1)c1cc(Cl)cc(NC(=O)OCc2ccccc2)c1 | 6.22 µM and 4.97 µM | 6.97 µM
70 | O=C(O)CCc1cccc(NC(=O)c2cc(Cl)cc(NC(=O)OCc3ccccc3)c2)c1 | 16.4 µM and 19.7 µM | 48.4 µM
71 | O=C(Nc1cc(Cl)cc(N[C@H](C#CCO)c2ccc(-c3nn[nH]n3)cc2)c1)OCc1ccccc1 | 11.7 µM | 26.4 µM
72 | N#C[C@H](Nc1cc(Cl)cc(NC(=O)OCc2ccccc2)c1)c1ccc(-c2nn[nH]n2)cc1 | 6.86 µM and 5.66 µM | 9.45 µM
73 | CNC(=O)[C@H](Nc1ccc(-c2nn[nH]n2)cc1)c1cc(Cl)cc(NC(=O)OCc2ccccc2)c1 | 40.7 µM | 50 µM
74 | O=C(Nc1cc(Cl)cc(C(=O)Nc2ccc([C@@H]3C[C@H]3C(=O)O)cc2)c1)OCc1ccccc1 | 9.55 µM and 9.43 µM | 19.5 µM
75 | CCc1cc(C(=O)Nc2cccc(-c3nnn[nH]3)c2)nn1-c1ccccc1 | > 100 µM | > 99.5 µM
